Experimental data taken from PubChem BioAssay (NCI).
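Growth conditions: 96-well plates. Treatment: test compound, 48 hours, 5 concentrations. Analysis: linear interpolation between bracketing concentrations; unreached endpoints set to highest concentration. Abbreviation: GI50, concentration required for 50% inhibition of growth. Definition used: TGI = concentration required for complete inhibition of growth.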

Assays:
Assay in all cases: NCI-60 cell line screen, 48 h
A549 NSCLC = test system: A549 NSCLC
DU-145 prostate = test system: DU-145 prostate
HCT-15 colon = test system: HCT-15 colon
HOP-62 NSCLC = test system: HOP-62 NSCLC
OVCAR-4 ovarian = test system: OVCAR-4 ovarian
OVCAR-5 ovarian = test system: OVCAR-5 ovarian
SK-OV-3 ovarian = test system: SK-OV-3 ovarian
SW-620 colon = test system: SW-620 colon
TK-10 renal = test system: TK-10 renal
SR leukemia = test system: SR leukemia

Row | SMILES | GI50 (A549 NSCLC) [µM] | TGI (A549 NSCLC) [µM] | GI50 (DU-145 prostate) [µM] | TGI (DU-145 prostate) [µM] | GI50 (HCT-15 colon) [µM] | TGI (HCT-15 colon) [µM] | GI50 (HOP-62 NSCLC) [µM] | TGI (HOP-62 NSCLC) [µM] | GI50 (OVCAR-4 ovarian) [µM] | TGI (OVCAR-4 ovarian) [µM] | GI50 (OVCAR-5 ovarian) [µM] | TGI (OVCAR-5 ovarian) [µM] | GI50 (SK-OV-3 ovarian) [µM] | TGI (SK-OV-3 ovarian) [µM] | GI50 (SW-620 colon) [µM] | TGI (SW-620 colon) [µM] | GI50 (TK-10 renal) [µM] | TGI (TK-10 renal) [µM] | TGI (SR leukemia) [µM]
1 | C=CC(=O)Nc1cc(N2CCN(CC)CC2)ccc1Nc1cc(N(C)C(=O)Nc2c(Cl)c(OC)cc(OC)c2Cl)ncn1 | 11.7 | 37.6 | 4.27 | 16.4 | 6.25 | 21.3 | 11.9 | 28.8 | 5.35 | 22.9 | 19.4 | 51.2 | 12.3 | 27.5 | 3.29 | 11.7 | 10.6 | 26 | –
2 | COC(=O)CC(NC(=O)OCc1ccccc1)C(C(=O)OCc1ccccc1)C(C)(OC)OC (configuration not stated) | – | 85.1 | – | – | – | > 100 | – | > 100 | – | > 100 | – | – | – | – | – | > 100 | – | > 100 | 53
3 | C1CC2CN(CCCN3CCOCC3)C(C1)O2 (configuration not stated) | – | > 100 | – | > 100 | – | > 100 | – | > 100 | – | > 100 | – | > 100 | – | > 100 | – | > 100 | – | > 100 | –
4 | COc1ccc(C(=O)C(CC2C(=O)NC(=O)NC2=O)c2ccc(OC)cc2)cc1 (configuration not stated) | – | > 100 | – | – | – | > 100 | – | > 100 | – | > 100 | – | > 100 | – | > 100 | – | > 100 | – | > 100 | > 100
5 | C[C@]12CC[C@H](O)CC1=CC[C@@H]1C2CC[C@]2(C)Nc3c(cnn3-c3ccccc3)CC12 (some centres not stated) | – | 37 | – | – | – | 18.6 | – | 8.81 | – | 36.6 | – | 17.3 | – | 20.7 | – | 8.22 | – | 83.2 | –
6 | c1ccc2c(-c3nc(-c4c[nH]c5ccncc45)cs3)c[nH]c2c1 | 2.45 | 6.21 | 3.36 | 11.3 | 1.56 | 3.4 | 1.71 | 4.27 | 2.96 | 11.7 | 2.59 | 6.63 | 2.62 | 8.29 | 1.73 | 3.54 | 2.76 | 4.74 | –
7 | CCOC(=O)N1CCc2cc(OC)c(OC)cc2/C1=C\c1ccc(OC)c(OC)c1 | – | 80.5 | – | – | – | > 100 | – | > 100 | – | – | – | > 100 | – | > 100 | – | > 100 | – | 73.9 | > 100
8 | Cc1cc(N(CCC#N)CCC#N)ccc1N=Nc1ccc(Br)cc1 | – | > 45.9 | – | – | – | > 100 | – | 20.9 | – | > 100 | – | > 100 | – | 11.7 | – | > 100 | – | 39.8 | –
9 | O=C(Nc1ccc(-c2nc(-c3cccc(OCCN4CCOCC4)c3)c(-c3ccnc(Br)c3)[nH]2)cc1)c1ccccc1 | 2.25 | > 100 | 6.74 | > 100 | 0.72 | 3.2 | – | – | – | – | 3.73 | > 100 | 2.15 | 4.79 | 2.05 | 6.38 | 4.48 | > 100 | –
10 | Cc1ccc(S(=O)(=O)c2ccccc2[N+](=O)[O-])cc1 | – | > 100 | – | – | – | > 100 | – | > 100 | – | > 100 | – | > 100 | – | > 100 | – | > 100 | – | > 100 | –
